Source: US6248739A, “Quinolinecarboxamides as antiviral agents” (Pharmacia & Upjohn Company, priority 1999, dated 2001)

Experiments:
VZV polymerase = VZV polymerase (Varicella-zoster virus, UniProt P09252); assay: VZV polymerase assay (Table 1); type: biochemical
HCMV polymerase = target: T1, HCMV polymerase (Human cytomegalovirus, UniProt P08546); assay: biochemical; conditions: HCMV polymerase; SPA; modified assay: compounds in 100% DMSO, 4.5 mM DTT
T1 construct: made in house; host or cells: recombinant baculovirus-infected SF-9 insect cells
How it was run: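 Scintillation proximity assay with baculovirus/SF-9-expressed HCMV polymerase, 90 nM ³H-dTTP and 6 nM biotinylated poly(dA)-oligo(dT) in HEPES pH 7.5/KCl/MgCl2/BSA, ±2 mM CHAPS, 25 or 37 °C, 30 min for HCMV. Modified version: compounds diluted in 100% DMSO, 4.5 mM DTT added. IC50 from linear regression.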

HSV polymerase = HSV polymerase (Human herpesvirus 1, UniProt P04293); assay: HSV polymerase assay (Table 1); type: biochemical
Sequence of HSV polymerase (P04293 whole entry): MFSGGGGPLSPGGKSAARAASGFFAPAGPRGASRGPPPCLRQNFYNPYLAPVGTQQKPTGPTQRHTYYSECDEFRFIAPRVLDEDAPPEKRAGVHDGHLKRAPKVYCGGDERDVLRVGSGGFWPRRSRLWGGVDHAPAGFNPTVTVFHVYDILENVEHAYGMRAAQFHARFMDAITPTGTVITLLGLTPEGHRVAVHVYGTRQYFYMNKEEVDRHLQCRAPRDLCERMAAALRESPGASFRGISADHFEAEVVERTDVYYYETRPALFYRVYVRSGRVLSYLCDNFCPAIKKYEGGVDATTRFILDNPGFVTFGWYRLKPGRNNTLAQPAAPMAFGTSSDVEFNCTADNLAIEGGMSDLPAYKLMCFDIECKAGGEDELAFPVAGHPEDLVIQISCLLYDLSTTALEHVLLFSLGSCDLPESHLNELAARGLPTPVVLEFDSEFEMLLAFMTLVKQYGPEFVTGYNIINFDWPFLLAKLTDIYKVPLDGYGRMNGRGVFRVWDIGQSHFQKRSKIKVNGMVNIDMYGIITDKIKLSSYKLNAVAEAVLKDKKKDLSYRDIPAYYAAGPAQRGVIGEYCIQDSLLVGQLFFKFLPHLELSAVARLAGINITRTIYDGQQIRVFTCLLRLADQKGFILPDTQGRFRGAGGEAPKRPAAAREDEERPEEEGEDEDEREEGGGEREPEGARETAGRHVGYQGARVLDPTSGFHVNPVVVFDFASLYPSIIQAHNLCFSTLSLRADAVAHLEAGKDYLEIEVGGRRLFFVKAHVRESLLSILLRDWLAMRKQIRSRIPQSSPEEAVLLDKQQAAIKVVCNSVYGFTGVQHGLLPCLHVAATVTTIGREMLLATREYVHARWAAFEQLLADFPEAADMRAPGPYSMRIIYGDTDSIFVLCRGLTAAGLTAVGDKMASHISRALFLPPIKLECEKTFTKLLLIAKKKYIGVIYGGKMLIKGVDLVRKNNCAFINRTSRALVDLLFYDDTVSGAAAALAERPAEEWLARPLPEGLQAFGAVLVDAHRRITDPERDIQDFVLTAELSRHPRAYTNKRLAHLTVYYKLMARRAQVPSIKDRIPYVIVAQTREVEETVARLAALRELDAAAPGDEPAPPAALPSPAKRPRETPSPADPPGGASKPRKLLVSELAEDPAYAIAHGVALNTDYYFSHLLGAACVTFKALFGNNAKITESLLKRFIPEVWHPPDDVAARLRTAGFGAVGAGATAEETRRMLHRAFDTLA

T1 sequence (P08546 whole entry): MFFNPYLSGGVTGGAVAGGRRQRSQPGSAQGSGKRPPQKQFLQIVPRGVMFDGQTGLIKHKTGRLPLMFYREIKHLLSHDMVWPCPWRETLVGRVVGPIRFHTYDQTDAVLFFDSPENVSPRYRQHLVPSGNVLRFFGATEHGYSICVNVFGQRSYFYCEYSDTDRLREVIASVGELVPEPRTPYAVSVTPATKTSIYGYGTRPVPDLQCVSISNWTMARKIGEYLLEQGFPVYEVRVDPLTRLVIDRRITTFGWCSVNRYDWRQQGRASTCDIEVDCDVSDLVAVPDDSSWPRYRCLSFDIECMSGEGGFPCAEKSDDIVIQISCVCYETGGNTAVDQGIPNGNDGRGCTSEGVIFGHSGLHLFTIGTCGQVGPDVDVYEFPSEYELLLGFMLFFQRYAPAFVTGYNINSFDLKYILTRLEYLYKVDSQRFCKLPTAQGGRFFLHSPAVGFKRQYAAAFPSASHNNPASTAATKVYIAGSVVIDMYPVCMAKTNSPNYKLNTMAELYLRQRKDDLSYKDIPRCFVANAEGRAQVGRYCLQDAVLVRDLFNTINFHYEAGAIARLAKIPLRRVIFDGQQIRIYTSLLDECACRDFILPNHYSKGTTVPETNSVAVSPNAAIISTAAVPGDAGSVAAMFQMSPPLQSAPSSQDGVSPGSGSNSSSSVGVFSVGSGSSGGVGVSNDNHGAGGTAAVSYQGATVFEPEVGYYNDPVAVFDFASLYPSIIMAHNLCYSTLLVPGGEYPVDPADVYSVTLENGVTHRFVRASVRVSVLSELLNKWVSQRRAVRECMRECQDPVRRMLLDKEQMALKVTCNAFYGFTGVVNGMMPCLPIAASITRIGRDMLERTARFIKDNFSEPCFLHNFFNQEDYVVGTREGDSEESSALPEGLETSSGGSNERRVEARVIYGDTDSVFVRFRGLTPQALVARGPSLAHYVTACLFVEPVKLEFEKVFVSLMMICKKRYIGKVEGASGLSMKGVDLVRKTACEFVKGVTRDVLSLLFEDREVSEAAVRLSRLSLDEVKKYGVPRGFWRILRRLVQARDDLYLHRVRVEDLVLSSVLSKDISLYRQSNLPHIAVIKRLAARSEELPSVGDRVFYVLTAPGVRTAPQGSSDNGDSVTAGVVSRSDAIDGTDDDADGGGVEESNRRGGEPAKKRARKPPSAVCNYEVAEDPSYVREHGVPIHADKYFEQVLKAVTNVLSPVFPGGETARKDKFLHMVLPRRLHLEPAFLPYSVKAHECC
Sequence of VZV polymerase (P09252 whole entry): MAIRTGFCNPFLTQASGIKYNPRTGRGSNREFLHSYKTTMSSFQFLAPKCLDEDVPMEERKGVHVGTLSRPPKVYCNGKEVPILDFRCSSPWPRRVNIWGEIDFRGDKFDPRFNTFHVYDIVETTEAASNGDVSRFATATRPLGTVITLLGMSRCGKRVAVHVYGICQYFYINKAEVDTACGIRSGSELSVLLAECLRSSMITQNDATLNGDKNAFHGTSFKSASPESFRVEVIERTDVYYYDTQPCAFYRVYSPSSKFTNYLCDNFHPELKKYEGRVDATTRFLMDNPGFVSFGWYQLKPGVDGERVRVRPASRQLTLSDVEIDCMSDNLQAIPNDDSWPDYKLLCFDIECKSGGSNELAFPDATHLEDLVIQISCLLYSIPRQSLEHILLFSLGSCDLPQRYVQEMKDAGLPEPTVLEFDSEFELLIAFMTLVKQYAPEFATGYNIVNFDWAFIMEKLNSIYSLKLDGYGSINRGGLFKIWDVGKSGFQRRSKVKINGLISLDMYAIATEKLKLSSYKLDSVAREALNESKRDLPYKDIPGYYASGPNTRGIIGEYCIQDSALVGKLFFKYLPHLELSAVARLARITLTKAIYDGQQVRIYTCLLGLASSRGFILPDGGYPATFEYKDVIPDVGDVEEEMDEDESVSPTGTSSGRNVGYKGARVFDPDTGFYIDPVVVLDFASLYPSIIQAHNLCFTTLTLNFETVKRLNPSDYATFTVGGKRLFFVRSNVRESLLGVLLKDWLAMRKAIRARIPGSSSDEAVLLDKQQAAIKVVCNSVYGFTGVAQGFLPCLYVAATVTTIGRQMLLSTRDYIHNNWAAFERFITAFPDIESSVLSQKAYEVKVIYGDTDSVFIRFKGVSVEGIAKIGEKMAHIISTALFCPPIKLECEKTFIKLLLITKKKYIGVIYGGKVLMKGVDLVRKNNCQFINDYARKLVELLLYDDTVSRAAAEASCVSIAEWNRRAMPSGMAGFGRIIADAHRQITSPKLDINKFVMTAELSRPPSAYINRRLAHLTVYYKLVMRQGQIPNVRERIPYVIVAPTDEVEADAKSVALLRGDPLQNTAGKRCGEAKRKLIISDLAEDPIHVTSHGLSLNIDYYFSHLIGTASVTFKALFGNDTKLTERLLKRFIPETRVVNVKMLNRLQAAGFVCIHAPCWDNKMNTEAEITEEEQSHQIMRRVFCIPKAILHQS

| Compound | IC50 (VZV polymerase) [nM] | IC50 (HCMV polymerase) [nM] | IC50 (HSV polymerase) [nM] |
| --- | --- | --- | --- |
| O=C(NCc1ccc(Cl)cc1)c1cn(CC#CCO)c2ccc(CN3CCOCC3)cc2c1=O [Example 62, N-(4-Chlorobenzyl)-1-(4-hydroxy-2-butynyl)-6-(4-morpholinylmethyl)-4-oxo-1,4-dihydro-3-quinolinecarboxamide] | 610 | 1300 | 1100 |
| C[S+]([O-])CCCn1cc(C(=O)NCc2ccc(Cl)cc2)c(=O)c2cc(CN3CCOCC3)ccc21 (centres unmarked) [Example 65, N-(4-Chlorobenzyl)-1-[3-(methylsulfinyl)propyl]-6-(4-morpholinylmethyl)-4-oxo-1,4-dihydro-3-quinolinecarboxamide] | 630 | 900 | 1000 |
| Cn1cc(C(=O)NCc2ccc(Cl)cc2)c(=O)c2cc(C#CCO)ccc21 [Example 31, N-(4-Chlorobenzyl)-6-(3-hydroxy-1-propynyl)-1-methyl-4-oxo-1,4-dihydro-3-quinolinecarboxamide] | 1000 | 1100 | 1300 |
| CC(C)N(CCn1cc(C(=O)NCc2ccc(Cl)cc2)c(=O)c2cc(C#CCO)ccc21)C(C)C [Example 17, N-(4-Chlorobenzyl)-1-[2-(diisopropylamino)ethyl]-6-(3-hydroxy-1-propynyl)-4-oxo-1,4-dihydro-3-quinolinecarboxamide] | 1100 | 800 | 2000 |
| O=C(NCc1ccc(Cl)cc1)c1cn(C2CC2)c2ccc(CCCO)cc2c1=O [Example 26, N-(4-Chlorobenzyl)-1-cyclopropyl-6-(3-hydroxypropyl)-4-oxo-1,4-dihydro-3-quinolinecarboxamide] | 490 | 530 | 780 |
| CSCCCn1cc(C(=O)NCc2ccc(Cl)cc2)c(=O)c2cc(CN3CCOCC3)ccc21 [Example 61, N-(4-Chlorobenzyl)-1-[3-(methylsulfanyl)propyl]-6-(4-morpholinylmethyl)-4-oxo-1,4-dihydro-3-quinolinecarboxamide] | 500 | 1100 | 900 |
| Cn1cc(C(=O)NCc2ccc(C#N)cc2)c(=O)c2cc(C#CCO)ccc21 [Example 43, N-(4-Cyanobenzyl)-6-(3-hydroxy-1-propynyl)-1-methyl-4-oxo-1,4-dihydro-3-quinolinecarboxamide] |  | 9400 |  |
| O=C(NCc1ccc(Cl)cc1)c1cn(C2CC2)c2ccc(CN3CCOCC3)cc2c1=O [Example 27, N-(4-Chlorobenzyl)-1-cyclopropyl-6-(4-morpholinylmethyl)-4-oxo-1,4-dihydro-3-quinolinecarboxamide] |  | 610 |  |
| O=C(NCc1ccc(Cl)cc1)c1cn(CCSc2ccccc2)c2ccc(CN3CCOCC3)cc2c1=O [Example 72] |  | 3000 |  |
| CN(CCS(=O)(=O)O)C(=O)CCCCCCC(=O)OCCCc1ccc2c(c1)c(=O)c(C(=O)NCc1ccc(Cl)cc1)cn2C1CC1 |  | > 20000 |  |
| COCCOCCOCCn1cc(C(=O)NCc2ccc(Cl)cc2)c(=O)c2cc(CN3CCOCC3)ccc21 [Example 56, N-(4-Chlorobenzyl)-1-{2-[2-(2-methoxyethoxy)ethoxy]ethyl}-6-(4-morpholinylmethyl)-4-oxo-1,4-dihydro-3-quinolinecarboxamide] |  | 3000 |  |
| Cn1cc(C(=O)NCc2ccc(Cl)cc2)c(=O)c2cc(CCCOP(=O)(O)O)ccc21 [Example 33, 3-(3-{[(4-Chlorobenzyl)amino]carbonyl}-1-methyl-4-oxo-1,4-dihydro-6-quinolinyl)propyl dihydrogen phosphate] |  | 3700 |  |
| CCC(C)n1cc(C(=O)NCc2ccc(Cl)cc2)c(=O)c2cc(C#CCO)ccc21 (centres unmarked) [Example 2, 1-(sec-butyl)-N-(4-chlorobenzyl)-6-(3-hydroxy-1-propynyl)-4-oxo-1,4-dihydro-3-quinolinecarboxamide] |  | 1600 |  |
| CC(C)(C)OP(=O)(OCCCc1ccc2c(c1)c(=O)c(C(=O)NCc1ccc(Cl)cc1)cn2C1CC1)OC(C)(C)C [Example 34, Di(tert-butyl) 3-(3-{[(4-chlorobenzyl)amino]carbonyl}-1-cyclopropyl-4-oxo-1,4-dihydro-6-quinolinyl)propyl phosphate] |  | > 20000 |  |
| Cn1cc(C(=O)NCc2ccc(Cl)cc2)c(=O)c2cc(CN3CC=C(F)CC3)ccc21 [Example 53, N-(4-Chlorobenzyl)-6-((4-fluoro-3,6-dihydro-1(2H)-pyridinyl)methyl)-1-methyl-4-oxo-1,4-dihydro-3-quinolinecarboxamide] |  | 11700 |  |
| CCC(C)n1cc(C(=O)NCc2ccc(Cl)cc2)c(=O)c2cc(C#CCO)cc(OC)c21 (centres unmarked) [Example 3, 1-(sec-butyl)-N-(4-chlorobenzyl)-6-(3-hydroxy-1-propynyl)-8-methoxy-4-oxo-1,4-dihydro-3-quinolinecarboxamide] |  | 2300 |  |
| O=C(NCc1ccc(Cl)cc1)c1cn(CS(=O)(=O)c2ccccc2)c2ccc(CN3CCOCC3)cc2c1=O [Example 82, N-(4-Chlorobenzyl)-6-(4-morpholinylmethyl)-4-oxo-1-[(phenylsulfonyl)methyl]-1,4-dihydro-3-quinolinecarboxamide] |  | 530 |  |

Next, values leading:

| IC50 (VZV polymerase) [nM] | IC50 (HCMV polymerase) [nM] | IC50 (HSV polymerase) [nM] | Compound |
| --- | --- | --- | --- |
|  | 1100 |  | O=C(NCc1ccc(F)cc1)c1cn(N2CCOCC2)c2ccc(CN3CCOCC3)cc2c1=O [Example 125, N-(4-Fluorobenzyl)-1-(4-morpholinyl)-6-(4-morpholinylmethyl)-4-oxo-1,4-dihydro-3-quinolinecarboxamide] |
|  | 1500 |  | CN(C)n1cc(C(=O)NCc2ccc(Cl)cc2)c(=O)c2cc(CN3CCOCC3)ccc21 [Example 117, N-(4-Chlorobenzyl)-1-(dimethylamino)-6-(4-morpholinylmethyl)-4-oxo-1,4-dihydro-3-quinolinecarboxamide] |
|  | 820 |  | O=C(NCc1ccc(Cl)cc1)c1cn(C2CCOCC2)c2ccc(CN3CCOCC3)cc2c1=O [Example 108, N-(4-Chlorobenzyl)-6-(4-morpholinylmethyl)-4-oxo-1-tetrahydro-2H-pyran-4-yl-1,4-dihydro-3-quinolinecarboxamide] |
|  | 590 |  | O=C(NCc1ccc(Cl)cc1)c1cn(C[S+]([O-])c2ccc(Cl)cc2)c2ccc(CN3CCOCC3)cc2c1=O (centres unmarked) [Example 102] |
|  | 2800 |  | C=CCOn1cc(C(=O)NCc2ccc(Cl)cc2)c(=O)c2ccccc21 [Example 122, 1-(Allyloxy)-N-(4-chlorobenzyl)-4-oxo-1,4-dihydro-3-quinolinecarboxamide] |
|  | 4000 |  | COCCOCCn1cc(C(=O)NCc2ccc(Cl)cc2)c(=O)c2cc(CN3CC[C@@H](O)C3)ccc21 [Example 87, N-(4-Chlorobenzyl)-6-{[(3R)-3-hydroxypyrrolidinyl]methyl}-1-[2-(2-methoxyethoxy)ethyl]-4-oxo-1,4-dihydro-3-quinolinecarboxamide] |
|  | 8000 |  | Cn1cc(C(=O)NCc2ccc(Cl)cc2)c(=O)c2cc(CN3CC(=NO)C3)ccc21 [Example 99, N-(4-Chlorobenzyl)-6-{[3-(ydroxyimino)-1-azetidinyl]methyl}-1-methyl-4-oxo-1,4-dihydro-3-quinolinecarboxamide] |
|  | 670 |  | O=C(NCc1ccc(Cl)cc1)c1cn(C2CCNCC2)c2ccc(CN3CCOCC3)cc2c1=O [Example 110, N-(4-Chlorobenzyl)-6-(4-morpholinylmethyl)-4-oxo-1-(4-piperidinyl)-1,4-dihydro-3-quinolinecarboxamide] |
|  | 3900 |  | CN(C)n1cc(C(=O)NCc2ccc(Cl)cc2)c(=O)c2ccccc21 [Example 121, N-(4-Chlorobenzyl)-1-(dimethylamino)-4-oxo-1,4-dihydro-3-quinolinecarboxamide] |
